Reference: patent publication US20120208182A1, “GENETIC TEST FOR LIVER COPPER ACCUMULATION IN DOGS AND LOW COPPER PET DIET” (priority 2009, published 2012)

How the values were obtained:
[1] = Pharmacokinetic study of oral zinc gluconate, plasma zinc by atomic absorption spectrometry; type: in vivo, Labrador Retrievers; settings: for V_F: volume of distribution: food withheld 12 h before dosing
Description: Two unrelated nine-year old, healthy Labrador Retrievers (1 female and 1 male) were used in a pharmacokinetic study. Food was withheld for a 12-hour period prior to oral administration of zinc, and during the initial 6-hour testing period. Water was freely available. […] Heparinized blood samples (4 ml) were collected from the jugular vein before dosing (time 0) and 15, 30, 45, 60, 90, 120 minutes, and 4, 8, 12 and 24 hours after application of the drug. Plasma was stored at
−20° C. until analysis for zinc using atomic absorption spectrometry. […]

Labrador Retrievers [2] = test: Diet trial with randomized, placebo-controlled zinc application: quantitative hepatic copper by neutron activation analysis; type: in vivo, dog; settings: 7.5 mg/kg PO BID versus placebo, all dogs on diet
Description: (§1) All dogs were fed the same diet. […] The pharmacist was the only person aware of group allocations until completion of the study. Hepatic copper concentrations and histopathology were assessed along with clinical examinations and blood-work before and after treatment for a mean of 8 months (range 5-13), and 16 months (range 12-25). Plasma zinc concentrations were measured at additional time points during treatment.
All dogs had completed their treatment with penicillamine prior to the start of this study. A medical history was obtained from all dogs and a physical examination was performed. […] Two biopsies were fixed in 10 percent neutral buffered formalin, and one biopsy was stored in a copper-free container for quantitative copper determination.
A quantitative assay for copper in liver tissue was performed by neutron activation analysis, according to a protocol described by Teske et al, using the facilities described by Bode (Bode, P. (1990) Journal of Trace and Microprobe Techniques 8: 139; Teske et al. (1992) Vet Rec 131: 30-32). Quantitative copper concentrations were measured in lyophilised liver biopsies and reported in mg/kg dry weight liver.
All dog owners were provided with the same specially manufactured diet. […] Metabolizable energy (measured according to Association of American Feed Control Officials protocol): 1650 kcal/kg as fed). […]

[3] = Diet trial: blood examinations (bile acids, ALP, ALT, plasma zinc); type: in vivo, dog
Description: as §1
All dogs had completed their treatment with penicillamine prior to the start of this study. A medical history was obtained from all dogs and a physical examination was performed. Na-citrated blood samples were taken for analysis of a coagulation profile, including prothrombin time (PT), activated partial thromboplastin time (aPTT) and fibrinogen. Heparin- and EDTA-blood was sampled for analysis of the hepatobiliary enzymes alkaline phosphatase (ALP), alanine aminotransferase (ALT), of bile acids (BA), and for measurement of the platelet count, and plasma zinc concentrations. Liver biopsies were taken according to the Menghini technique given by Rothuizen (Rothuizen J, I. T. (1998) Tijdschr Diergeneeskd 123: 246-252). At least three liver biopsies were taken from each dog. Two biopsies were fixed in 10 percent neutral buffered formalin, and one biopsy was stored in a copper-free container for quantitative copper determination.

Labrador Retrievers [4] = test: Diet trial: observed adverse effects; type: in vivo, dog; settings: in 3 dogs of group 1; immediately after the tablets, resolved when tablets were mixed with the diet
Description: as §1
Owners were instructed to give the tablets mixed with small amounts of their diet 30 minutes before feeding. Neither the owner nor the clinician was informed about which treatment each dog received.

Labrador Retrievers [5] = test: Hepatic copper before penicillamine, after penicillamine and after diet (Example 5, FIG. 3); type: in vivo, dog; settings: all dogs on diet, data not shown
Description: FIG. 3 illustrates the effectiveness of the diet of the invention on hepatic copper concentrations (mg/kg dry weight) in 18 Labrador Retrievers compared with the effect of penicillamine alone. The key to the x-axis is as follows: 1=pre-penicillamine, 2=post-penicillamine/pre-food, 3=post-food. […] The dotted line represents the normal level of hepatic copper for adult dogs.
During an investigation of the effect of zinc on hepatic copper concentration, hepatic copper concentration was measured in 18 pure-bred Labrador Retrievers. Half of the dogs were provided with a supplement of zinc and the other half were provided with a placebo. All of the dogs were fed the diet of Example 2. Hepatic copper concentration was measured using the method of Example 2 at 3 time points: (1) before treatment with penicillamine; (2) after treatment with penicillamine but before treatment with the diet of Example 2; and (3) after the diet treatment.

zinc gluconate
AUC: area under the curve ([1]; Dog 1, 10 mg/kg oral): 63350 ng·h/mL
K01: absorption rate constant ([1]; Dog 1, 10 mg/kg oral): 0.5672 h⁻¹
K10: elimination rate constant ([1]; Dog 1, 10 mg/kg oral): 0.05373 h⁻¹
Tmax: time of maximum concentration ([1]; Dog 1, 10 mg/kg oral): 4.59 h
V_F: volume of distribution ([1]; Dog 1, 10 mg/kg oral): 2937.872 ml/kg bodyweight
AUC: area under the curve ([1]; Dog 2, 5 mg/kg oral): 51990 ng·h/mL
K01: absorption rate constant ([1]; Dog 2, 5 mg/kg oral): 1.161 h⁻¹
K10: elimination rate constant ([1]; Dog 2, 5 mg/kg oral): 0.03789 h⁻¹
Tmax: time of maximum concentration ([1]; Dog 2, 5 mg/kg oral): 3.048 h
V_F: volume of distribution ([1]; Dog 2, 5 mg/kg oral): 2538.689 ml/kg bodyweight
calculated accumulation rate R ([1]; R=1/(1−exp(−k10*24))): 1.52
apparent oral clearance (CL/F), mean of both dogs ([1]; mean of dog 1 and dog 2): 2.116898 mL/min/kg
effect of adjunctive zinc on hepatic copper decrease by diet (Labrador Retrievers [2]): did not amplify the de-coppering effect
plasma zinc concentration, group 1 versus group 2 ([3]; at any of the three examinations (start, recheck-1, recheck-2)): No difference
mean plasma zinc concentration ([3]; group 1, after the initial month of treatment, sampled 2-6 hours after zinc application, start 95): 165 µg/dL
adverse effects (Labrador Retrievers [4]): Vomiting, anorexia, and diarrhea
copper levels in dogs treated with zinc versus placebo (Labrador Retrievers [5]): no significant difference
